Assay results published in PubChem BioAssay (NCI).
Where “and” joins values, the source holds several entries; their conditions need not be identical. Equal entries are not always repeated.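 Dose response: 5 concentrations. Exposure: 48 h. Format: 96-well plates. Endpoint: linear interpolation; highest concentration if not reached. Abbreviation: GI50, concentration required for 50% inhibition of growth. TGI marks complete inhibition of growth.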

Columns and labels:
Assay in all cases: NCI anticancer screen, dose series, 48 h
SNB-19 CNS = test system: SNB-19 CNS
A498 renal = test system: A498 renal
HCC-2998 colon = test system: HCC-2998 colon
LOX IMVI melanoma = test system: LOX IMVI melanoma
M14 melanoma = test system: M14 melanoma
MOLT-4 leukemia = test system: MOLT-4 leukemia
TK-10 renal = test system: TK-10 renal
SK-OV-3 ovarian = test system: SK-OV-3 ovarian
OVCAR-3 ovarian = test system: OVCAR-3 ovarian
PC-3 prostate = test system: PC-3 prostate

COC(=O)C1(O)c2ccccc2N=C2C1CCN2C (stereo not given)
TGI (SNB-19 CNS): > 100 µM
TGI (A498 renal): > 100 µM
TGI (HCC-2998 colon): > 100 µM
TGI (LOX IMVI melanoma): > 100 µM
TGI (M14 melanoma): > 100 µM
TGI (MOLT-4 leukemia): > 100 µM
TGI (TK-10 renal): > 100 µM
TGI (SK-OV-3 ovarian): > 100 µM

CC1(C)CC(N2CCN(C3CC(C)(C)NC(C)(C)C3)CC2)CC(C)(C)N1
TGI (SNB-19 CNS): > 100 µM
TGI (A498 renal): > 100 µM
TGI (HCC-2998 colon): > 100 µM
TGI (LOX IMVI melanoma): > 100 µM
TGI (M14 melanoma): > 100 µM
TGI (MOLT-4 leukemia): > 100 µM
TGI (TK-10 renal): > 100 µM
TGI (SK-OV-3 ovarian): > 100 µM
TGI (OVCAR-3 ovarian): > 100 µM

CCCCCCSc1nc(COC(=O)NC)c(COC(=O)NC)n1C
TGI (SNB-19 CNS): > 100 µM
TGI (A498 renal): > 100 µM
TGI (PC-3 prostate): > 100 µM
TGI (LOX IMVI melanoma): > 100 µM
TGI (M14 melanoma): > 100 µM
TGI (MOLT-4 leukemia): > 100 µM
TGI (TK-10 renal): > 100 µM
TGI (SK-OV-3 ovarian): > 100 µM
TGI (OVCAR-3 ovarian): > 100 µM

COC(=O)C1=C(\O)C[C@@]2(C)CC[C@@H](C(=O)OC)C2C/C=C\1C(=O)OC (stereo not given in full)
TGI (SNB-19 CNS): > 100 µM
TGI (A498 renal): 75.3 µM
TGI (HCC-2998 colon): > 100 µM
TGI (LOX IMVI melanoma): > 100 µM
TGI (M14 melanoma): > 100 µM
TGI (MOLT-4 leukemia): > 100 µM
TGI (TK-10 renal): > 100 µM
TGI (SK-OV-3 ovarian): > 100 µM
TGI (OVCAR-3 ovarian): > 100 µM

CCCCCCCCCCCC(=O)OC(COC(N)=O)COc1ccc(Cl)cc1 (stereo not given)
TGI (SNB-19 CNS): 83 µM
TGI (A498 renal): > 100 µM
TGI (HCC-2998 colon): 96.1 µM
TGI (LOX IMVI melanoma): 55 µM
TGI (M14 melanoma): 35 µM
TGI (MOLT-4 leukemia): 44.3 µM
TGI (TK-10 renal): > 100 µM
TGI (SK-OV-3 ovarian): > 100 µM
TGI (OVCAR-3 ovarian): 31.6 µM

Cc1ccc(NC(=O)C(=O)CC(=O)c2ccccc2)cc1C
TGI (SNB-19 CNS): > 100 µM
TGI (A498 renal): > 100 µM
TGI (HCC-2998 colon): > 100 µM
TGI (LOX IMVI melanoma): > 100 µM
TGI (M14 melanoma): > 100 µM
TGI (TK-10 renal): > 100 µM
TGI (SK-OV-3 ovarian): > 100 µM
TGI (OVCAR-3 ovarian): > 100 µM

Cc1[nH]n(-c2cccc(Cl)c2)c(=O)c1/C=C1\C=c2ccccc2=CC1=O
GI50 (SNB-19 CNS): 45.7 µM
TGI (SNB-19 CNS): > 100 µM
GI50 (A498 renal): > 100 µM
TGI (A498 renal): > 100 µM
GI50 (PC-3 prostate): > 100 µM
TGI (PC-3 prostate): > 100 µM
GI50 (LOX IMVI melanoma): > 100 µM
TGI (LOX IMVI melanoma): > 100 µM
GI50 (M14 melanoma): > 100 µM
TGI (M14 melanoma): > 100 µM
GI50 (MOLT-4 leukemia): > 100 µM
TGI (MOLT-4 leukemia): > 100 µM
GI50 (TK-10 renal): 35 µM
TGI (TK-10 renal): > 100 µM
GI50 (SK-OV-3 ovarian): 26.5 µM
TGI (SK-OV-3 ovarian): > 100 µM
GI50 (OVCAR-3 ovarian): 59.5 µM
TGI (OVCAR-3 ovarian): > 100 µM

COC(=O)NC(=O)c1cn(C2CCCCC2)c(=O)[nH]c1=O
TGI (SNB-19 CNS): > 100 µM
TGI (A498 renal): > 100 µM
TGI (HCC-2998 colon): > 100 µM
TGI (LOX IMVI melanoma): > 100 µM
TGI (M14 melanoma): > 100 µM
TGI (MOLT-4 leukemia): > 100 µM
TGI (TK-10 renal): > 100 µM
TGI (SK-OV-3 ovarian): > 100 µM
TGI (OVCAR-3 ovarian): > 100 µM

N#CC1C(=O)NC(=O)C1=O (stereo not given)
TGI (SNB-19 CNS): > 100 µM
TGI (A498 renal): > 100 µM
TGI (HCC-2998 colon): > 100 µM
TGI (LOX IMVI melanoma): > 100 µM
TGI (M14 melanoma): > 100 µM
TGI (MOLT-4 leukemia): > 100 µM
TGI (TK-10 renal): > 100 µM
TGI (SK-OV-3 ovarian): > 100 µM
TGI (OVCAR-3 ovarian): > 100 µM

O=C(/C=C/c1ccc(O)cc1)c1cc(Cl)ccc1O
TGI (SNB-19 CNS): > 100 µM
TGI (A498 renal): > 100 µM
TGI (HCC-2998 colon): > 100 µM
TGI (LOX IMVI melanoma): 56.2 µM
TGI (M14 melanoma): > 100 µM
TGI (MOLT-4 leukemia): 55.8 µM
TGI (TK-10 renal): > 100 µM
TGI (SK-OV-3 ovarian): > 100 µM
TGI (OVCAR-3 ovarian): > 100 µM

O=C1c2ccccc2C(=O)c2c1ccc1c2N=C(c2ccc(Br)cc2)CC(c2cccc3ccccc23)N1 (stereo not given)
TGI (SNB-19 CNS): > 100 µM
TGI (HCC-2998 colon): > 100 µM
TGI (LOX IMVI melanoma): > 100 µM
TGI (M14 melanoma): > 100 µM
TGI (TK-10 renal): > 100 µM
TGI (SK-OV-3 ovarian): > 100 µM
TGI (OVCAR-3 ovarian): > 100 µM

O=C(O)COc1ccc(C(=O)/C(SS/C(C(=O)c2ccc(OCC(=O)O)c(Cl)c2Cl)=C2\C=C(c3ccccc3Cl)SS2)=C2/C=C(c3ccccc3Cl)SS2)c(Cl)c1Cl
TGI (SNB-19 CNS): > 100 µM
TGI (A498 renal): 88.7 µM
TGI (HCC-2998 colon): > 100 µM
TGI (LOX IMVI melanoma): 28.5 µM
TGI (M14 melanoma): > 68 µM
TGI (MOLT-4 leukemia): 53.6 µM
TGI (TK-10 renal): > 95.7 µM
TGI (SK-OV-3 ovarian): > 100 µM
TGI (OVCAR-3 ovarian): 53 µM

O=C(O)c1cn(C2CC2)c2cc(N3CCN(Cc4ccc5ccccc5c4O)CC3)c(F)cc2c1=O
GI50 (SNB-19 CNS): 29.8 µM
TGI (SNB-19 CNS): > 100 µM
GI50 (A498 renal): 2.09 µM
TGI (A498 renal): 4.67 µM
GI50 (LOX IMVI melanoma): 3.13 µM
TGI (LOX IMVI melanoma): > 100 µM
GI50 (M14 melanoma): 3.18 µM
TGI (M14 melanoma): > 100 µM
GI50 (SK-OV-3 ovarian): 3.68 µM
TGI (SK-OV-3 ovarian): > 100 µM

COc1cc(/C=C/c2cc(O)c(C/C=C(\C)CC/C=C(\C)CO)c(O)c2)cc2c1O[C@]1(C)CC[C@@H](O)C(C)(C)[C@H]1C2
GI50 (SNB-19 CNS): > 91.9 µM
TGI (SNB-19 CNS): > 100 µM
TGI (PC-3 prostate): > 100 µM
GI50 (HCC-2998 colon): 12 µM
TGI (HCC-2998 colon): 39.6 µM
GI50 (M14 melanoma): 0.486 µM and 3.68 µM
TGI (M14 melanoma): 3.72 µM and 19 µM
TGI (MOLT-4 leukemia): 0.0949 µM
TGI (TK-10 renal): > 93.8 µM
GI50 (SK-OV-3 ovarian): > 100 µM
TGI (SK-OV-3 ovarian): > 100 µM
GI50 (OVCAR-3 ovarian): > 29.3 µM
TGI (OVCAR-3 ovarian): > 70.2 µM

C=C1C(=O)C2(C)OC2(C)C1C(=O)O (stereo not given)
TGI (SNB-19 CNS): > 100 µM
TGI (PC-3 prostate): > 100 µM
TGI (HCC-2998 colon): > 100 µM
TGI (LOX IMVI melanoma): > 100 µM
TGI (M14 melanoma): > 100 µM
TGI (TK-10 renal): > 100 µM
TGI (SK-OV-3 ovarian): > 100 µM
TGI (OVCAR-3 ovarian): > 100 µM

O=C1N=C(Nc2nc(-c3csc(NC4=NC(=O)/C(=C\c5ccc(Cl)cc5)S4)n3)cs2)S/C1=C/c1ccc(Cl)cc1
GI50 (SNB-19 CNS): 12 µM
TGI (SNB-19 CNS): > 50 µM
GI50 (PC-3 prostate): 8.78 µM
TGI (PC-3 prostate): 49 µM
GI50 (HCC-2998 colon): 13.3 µM
TGI (HCC-2998 colon): 45.2 µM
GI50 (LOX IMVI melanoma): 8.34 µM
TGI (LOX IMVI melanoma): > 50 µM
GI50 (M14 melanoma): 3.03 µM
TGI (M14 melanoma): 11.5 µM
GI50 (MOLT-4 leukemia): 1.69 µM
TGI (MOLT-4 leukemia): > 50 µM
GI50 (TK-10 renal): 8.44 µM
TGI (TK-10 renal): 25.6 µM
GI50 (OVCAR-3 ovarian): 10.5 µM
TGI (OVCAR-3 ovarian): 37.3 µM
